Assay results published in ChEMBL document CHEMBL4359937, “Design, synthesis and evaluation of 2-amino-imidazol-4-one derivatives as potent β-site amyloid precursor protein cleaving enzyme 1 (BACE-1) inhibitors” (Bioorg Med Chem Lett, 2019).

What was measured:
[1] = target: T1, Beta-secretase 1 (Homo sapiens, UniProt P56817); test: Inhibition of human BACE1 (1 to 460 residues) expressed in baculovirus infected insect cells at 10 uM using Rh-EVNLDAEFK-quencher as substrate measured after 90 mins by FRET assay relative to control
T1 sequence (P56817 whole entry, the tested form may be a part): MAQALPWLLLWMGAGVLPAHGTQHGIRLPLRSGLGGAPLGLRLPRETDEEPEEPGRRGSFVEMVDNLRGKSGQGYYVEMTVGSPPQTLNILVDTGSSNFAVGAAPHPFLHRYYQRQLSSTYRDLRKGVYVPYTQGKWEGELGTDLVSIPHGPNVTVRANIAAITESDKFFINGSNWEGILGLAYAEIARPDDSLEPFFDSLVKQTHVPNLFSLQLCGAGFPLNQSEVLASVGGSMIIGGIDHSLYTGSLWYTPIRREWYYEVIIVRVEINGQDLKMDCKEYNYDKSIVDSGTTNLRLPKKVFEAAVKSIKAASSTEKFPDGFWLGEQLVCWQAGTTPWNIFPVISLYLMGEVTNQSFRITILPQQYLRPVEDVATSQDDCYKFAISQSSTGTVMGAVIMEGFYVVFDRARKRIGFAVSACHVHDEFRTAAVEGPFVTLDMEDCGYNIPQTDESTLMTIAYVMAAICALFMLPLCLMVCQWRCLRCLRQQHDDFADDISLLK

[2] = target: T1, Beta-secretase 1; test: Inhibition of human BACE1 (1 to 460 residues) expressed in baculovirus infected insect cells using Rh-EVNLDAEFK-quencher as substrate measured after 90 mins by FRET assay
[3] = 1-Octanol/water distribution coefficient, logP of compound at 60 ug/ml shaken for 30 mins and measured by ultraviolet spectrophotometry analysis; assay type: physicochemical

Compound | inhibition [1] [%] | IC50 [2] [nM] | logP at 0.5 h [3]
Cc1ccc(F)cc1-c1cccc(C2(c3ccccc3)N=C(N)N(C)C2=O)c1 (stereo unspecified) | 92 | 328 | 2.35
COc1ccc(-c2cccc(C3(c4ccccc4)N=C(N)N(C)C3=O)c2)cc1OC (stereo unspecified) | 97.5 | 119 | 2.49
Cc1ccc(-c2cccc(C3(c4ccccc4)N=C(N)N(C)C3=O)c2)c(C)c1 (stereo unspecified) | 40.9 | > 10000 | 2.51
Cc1cccc(C)c1-c1cccc(C2(c3ccccc3)N=C(N)N(C)C2=O)c1 (stereo unspecified) | 34.1 | > 10000 | 2.42
Cc1cc(C)cc(-c2cccc(C3(c4ccccc4)N=C(N)N(C)C3=O)c2)c1 (stereo unspecified) | 47.2 | > 10000 | 2.56
CN1C(=O)C(c2ccccc2)(c2cccc(-c3ccc(OCc4ccccc4)cc3)c2)N=C1N (stereo unspecified) | 37.7 | > 10000 | 2.99
CN1C(=O)C(c2ccccc2)(c2cccc(Br)c2)N=C1N (stereo unspecified) | 33.1 | > 10000 | 2.04
Cc1ccc(C)c(-c2cccc(C3(c4ccccc4)N=C(N)N(C)C3=O)c2)c1 (stereo unspecified) | 42.1 | > 10000 | 2.52
COc1ccc(F)cc1-c1cccc(C2(c3ccccc3)N=C(N)N(C)C2=O)c1 (stereo unspecified) | 96 | 173 | 2.86
Cc1cc(C)c(-c2cccc(C3(c4ccccc4)N=C(N)N(C)C3=O)c2)c(C)c1 (stereo unspecified) | 45.7 | > 10000 | 2.55
Cc1cc(F)ccc1-c1cccc(C2(c3ccccc3)N=C(N)N(C)C2=O)c1 (stereo unspecified) | 87.7 | 456 | 2.34
CN1C(=O)C(c2ccccc2)(c2ccccc2)N=C1N | 62.2 |  | 1.9
COc1cccc(-c2cccc(C3(c4ccccc4)N=C(N)N(C)C3=O)c2)c1OC (stereo unspecified) | 78.6 | 1110 | 2.15
CN1C(=O)C(c2ccccc2)(c2cccc(-c3ccc(-c4ccccc4)cc3)c2)N=C1N (stereo unspecified) | 43.9 | > 10000 | 3.18
COc1cccc(-c2cccc(C3(c4ccccc4)N=C(N)N(C)C3=O)c2)c1F (stereo unspecified) | 94.7 | 220 | 2.72
COc1ccc(OC)c(-c2cccc(C3(c4ccccc4)N=C(N)N(C)C3=O)c2)c1 (stereo unspecified) | 95 | 195 | 2.54
COc1ccc(-c2cccc(C3(c4ccccc4)N=C(N)N(C)C3=O)c2)c(OC)c1 (stereo unspecified) | 75.5 | 1570 | 2.46
CN1C(=O)C(c2ccccc2)(c2cccc(-c3ccc(C(C)(C)C)cc3)c2)N=C1N (stereo unspecified) | 34.2 | > 10000 | 3.1
Cc1ccc(-c2cccc(C3(c4ccccc4)N=C(N)N(C)C3=O)c2)cc1C (stereo unspecified) | 88.3 | 425 | 2.49
Cc1ccc(-c2cccc(C3(c4ccccc4)N=C(N)N(C)C3=O)c2)c(F)c1 (stereo unspecified) | 97 | 141 | 2.97
COc1cccc(OC)c1-c1cccc(C2(c3ccccc3)N=C(N)N(C)C2=O)c1 (stereo unspecified) | 82.1 | 720 | 2.02
COc1cc(OC)cc(-c2cccc(C3(c4ccccc4)N=C(N)N(C)C3=O)c2)c1 (stereo unspecified) | 80.7 | 851 | 2.41
CN1C(=O)C(c2ccccc2)(c2cccc(-c3cccc(-c4ccccc4)c3)c2)N=C1N (stereo unspecified) | 20.5 | > 10000 | 3.14
CCc1ccc(-c2cccc(C3(c4ccccc4)N=C(N)N(C)C3=O)c2)cc1 (stereo unspecified) | 43.5 | > 10000 | 2.56
